# Patent US20260286297A1, “METHOD FOR PRODUCING GROUP 2 INNATE LYMPHOID CELLS” (KYOTO UNIVERSITY, priority 2023, published 2026)
# How the values were obtained:
# [1] = tested on: hematopoietic precursor cells (derived from iPS cell line 1231A2); assay: Differentiation induction from iPS cell-derived HPCs to ILC2s, flow cytometry (Experiments 2 and 4); assay type: cell-based, human; conditions: line 1231A2 HPCs; for induction of ILC2-like cell populations (lineage marker-negative, GATA3-expressing, capacity to produce IL-13): CDK8 inhibitor in medium B Day 6-12 (Senexin A 3 μM; CCT-251921 100 nM), flow cytometry after 12 days; for differentiation induction into ILC2-like cells containing IL-10-producing cells: Condition 2 plus CDK8 inhibitor in medium B Day 6-12 (Compounds 1-3 1 μM, Compound 4 10 μM)
# Protocol: The HPCs prepared from the iPS cells in Experiment 1 were cultured to be differentiation-induced into ILC2s. Specifically, 2500 to 20000 HPC stock cells prepared from the line 1231A2 were seeded in a 96-well plate (Corning, 3799 or Iwaki, 3860-096) coated with 2.5 μg/mL Fc-DLL4 and 2.5 μg/mL RetroNectin™ (Day 0) and cultured at 37° C. in a 5% CO2 atmosphere under the medium conditions shown below for 12 days to be differentiation-induced. In the differentiation induction culture for 12 days, 100 μL of medium was added on Day 3, followed by medium replacement on Day 6 and Day 9. If the cells in each culture well are confluent after the medium replacement on Day 6 and Day 9, the cells in the well were suspended, 2-fold diluted, and reseeded in a new 96-well plate. In the cases of Conditions 2 to 4, IL-2 (BioLegend, 589108 or PeproTech, 200-02) was added to medium A at 200 U/mL. In the case of Condition 3, Senexin A (Selleck, S8520) was added to medium B at 3 μM as CDK8 inhibitor. In the case of Condition 4, CCT-251921 (MedChemExpress, HY-19984) was added to medium B at 100 nM as CDK8 inhibitor. The differentiated cells cultured as described above were stimulated at 37° C. in a 5% CO2 atmosphere for 4 to 6 hours using the following: • IL-1β (PeproTech, 200-01B), final concentration: 10 ng/ml. • IL-2, final concentration: 20 ng/ml. • IL-7, final concentration: 50 ng/ml. • IL-23 (BioLegend, 574106), final concentration: 20 ng/ml • IL-25 (IL-17E) (PeproTech, 200-24), final concentration: 20 ng/ml • eBioscience™ Cell Stimulation Cocktail (plus Protein transport inhibitor) (Thermo Fisher Scientific, 00-4975-03) The stimulated cells were subsequently stained and analyzed with an LSRFortessa™ Cell Analyzer (BD Biosciences) by flow cytometry. […] The present experiment confirmed the differentiation induction into ILC2s using multiple CDK8 inhibitors having different structures.
# [2] = tested on: HPCs derived from the line Ff-101s04; assay: Differentiation induction from iPS cell-derived HPCs to ILC2s, different iPS cell line (Experiment 3); assay type: cell-based, human; conditions: HPCs from iPS line Ff-101s04; Condition 3 (3 μM Senexin A), Condition 4 (100 nM CCT-251921)
# [3] = tested on: human cord blood-derived CD34-positive cells; assay: Differentiation induction from human cord blood-derived CD34-positive HPCs to ILC2s (Experiment 5); assay type: cell-based; conditions: Condition 3 (3 μM Senexin A), flow cytometry on Day 19
# Source text: In order to ascertain the versatility of the method for differentiation induction in Experiment 2, the present experiment confirmed the differentiation induction from HPCs derived from the human body to ILC2s. Specifically, ILC2s were differentiation-induced by culturing purchased human cord blood-derived CD34-positive cells (Lonza, 2C-101) with the methods of Condition 1, Condition 2, and Condition 3 in Experiment 2. In the present experiment, the medium was also replaced with the same medium as on Days 6 to 12 on Day 12 and Day 15 of the culture, and the cells in each culture well were 2-fold diluted and reseeded in the case where the cells in the culture well were confluent.
# [4] = tested on: iPS cell-derived HPCs differentiation culture; assay: Concentrations of cytokines in differentiation culture supernatant containing iPS cell-derived ILC2s (Experiment 6); assay type: cell-based, human; conditions: Day 12 culture supernatant; Condition 3 versus Conditions 1 and 2
# Source text: The culture supernatant of Day 12 of the culture was collected that was differentiation-induced under “Condition 1”, “Condition 2”, and “Condition 3” described in Experiment 2, followed by the quantification of concentrations of IL-10, IL-5, and amphiregulin in the culture supernatant with the following kits, respectively. Amphiregulin is a cytokine that plays a central role in the capacity of ILC2s to repair tissue. It is conceivable that ILC2s having the capacity to repair tissue were obtained in the case where amphiregulin increased in concentration. • IL-10: Human IL-10 immunoassay kit (PerkinElmer, AL218C) • IL-5: Human IL-5 immunoassay kit (PerkinElmer, AL267C) • Amphiregulin: Human Amphiregulin Quantikine ELISA Kit (R&D Systems, DAR00)
# IL-10 and IL-5 were measured with an Envision (Revvity). Amphiregulin was measured with a Powerscan4 (DS pharma biomedical Co., LTD.).
Structure (SMILES),"induction of ILC2-like cell populations (lineage marker-negative, GATA3-expressing, capacity to produce IL-13) [1]",differentiation induction into ILC2-like cells containing IL-10-producing cells [1],differentiation induction of ILC2-like cells containing IL-10-producing cells [2],"capacity of the induced ILC2-like cells to produce IL-10 ([1]; Condition 3, 3 μM Senexin A in medium B Day 6-12)",differentiation induction of ILC2-like cells containing IL-10-producing cells [3],production of IL-5 in the culture supernatant [4],production of IL-10 in the culture supernatant [4],production of amphiregulin in the culture supernatant [4]
Cn1ncc2cc(-c3cnc(N)c(Cl)c3N3CCC4(CCNC4=O)CC3)ccc21 [CCT-251921],ILC2-like cell populations were induced,observed,ILC2-like cells containing IL-10-producing cells were differentiation-induced,–,–,–,–,–
N#Cc1ccc2ncnc(NCCc3ccccc3)c2c1 [Senexin A],ILC2-like cell populations were induced,observed,ILC2-like cells containing IL-10-producing cells were differentiation-induced,had the capacity to produce IL-10,ILC2-like cells containing IL-10-producing cells were differentiation-induced,enhancement of production,enhancement of production,enhancement of production
